According to patent US20240158418A1 (C4 Therapeutics, Inc., priority 2021, published 2024):

Each compound was assayed against T1, EGFR L858R-T790M (Homo sapiens, UniProt P00533, L858R/T790M) (assay: EGFR degradation, Total EGFR (L858R-specific) HTRF, NCI-H1975). Details: Table 9A; NCI-H1975 cells, 6 hours, Total EGFR HTRF; read-out: H1975 EGFR DC50.
T1 construct: NCI-H1975 (harboring EGFR heterozygous L858R-T790M mutations); host or cells: NCI-H1975
Type: cell-based
In short: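 Cells in RPMI 1640 + 10% FBS treated 6 h at 37°C with compound, 11-point half-log titration from 10 μM top, in duplicate. pY1068 and total EGFR read by HTRF (pan-EGFR antibody for wild-type A431; L858R-specific for mutants); IC50 for phospho inhibition, DC50 for 50% degradation.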

T1 sequence (P00533 25-1210 T790M/L858R): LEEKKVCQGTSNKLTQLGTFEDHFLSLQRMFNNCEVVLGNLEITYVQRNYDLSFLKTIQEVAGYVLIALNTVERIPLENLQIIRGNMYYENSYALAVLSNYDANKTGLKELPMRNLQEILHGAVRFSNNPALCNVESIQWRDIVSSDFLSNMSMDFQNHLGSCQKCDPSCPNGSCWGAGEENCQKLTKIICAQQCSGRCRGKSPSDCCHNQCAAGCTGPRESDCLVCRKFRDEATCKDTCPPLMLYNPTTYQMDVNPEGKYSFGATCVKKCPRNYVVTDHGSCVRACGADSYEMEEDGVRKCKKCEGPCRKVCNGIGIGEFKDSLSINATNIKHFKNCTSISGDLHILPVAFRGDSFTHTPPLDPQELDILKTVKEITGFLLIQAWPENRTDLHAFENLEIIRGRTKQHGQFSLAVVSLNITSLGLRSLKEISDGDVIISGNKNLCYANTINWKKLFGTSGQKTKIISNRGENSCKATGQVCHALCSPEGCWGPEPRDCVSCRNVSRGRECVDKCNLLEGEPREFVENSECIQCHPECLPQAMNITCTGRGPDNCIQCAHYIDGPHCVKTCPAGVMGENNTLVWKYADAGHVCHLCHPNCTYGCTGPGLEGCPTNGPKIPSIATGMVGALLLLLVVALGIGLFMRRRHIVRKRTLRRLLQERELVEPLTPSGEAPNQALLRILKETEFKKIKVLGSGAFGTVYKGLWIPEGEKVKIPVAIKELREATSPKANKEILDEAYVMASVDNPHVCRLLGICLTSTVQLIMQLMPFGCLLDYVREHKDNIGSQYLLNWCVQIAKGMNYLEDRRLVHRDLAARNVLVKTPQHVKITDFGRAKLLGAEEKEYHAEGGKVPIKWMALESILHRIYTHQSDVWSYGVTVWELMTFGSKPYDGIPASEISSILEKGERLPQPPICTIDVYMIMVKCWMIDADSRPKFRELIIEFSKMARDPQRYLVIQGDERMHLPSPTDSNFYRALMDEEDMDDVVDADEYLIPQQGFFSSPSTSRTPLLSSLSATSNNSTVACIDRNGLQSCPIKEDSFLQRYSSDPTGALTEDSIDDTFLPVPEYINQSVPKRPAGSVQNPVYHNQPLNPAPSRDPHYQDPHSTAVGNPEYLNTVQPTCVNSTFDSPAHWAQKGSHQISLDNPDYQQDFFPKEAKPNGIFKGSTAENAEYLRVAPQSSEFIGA

Row | Compound | DC50 [nM]
1 | O=C1CCC(Nc2ccc(C3CCN(CC(=O)N4CCN(c5ccc(-c6cc(F)c7c(c6)C(=O)N(C(C(=O)Nc6nccs6)c6ncn8c6CCC8)C7)cc5)CC4)CC3)cc2F)C(=O)N1 (stereo not drawn) [Compound 13, 2-(6,7-dihydro-5H-pyrrolo[1,2-c]imidazol-1-yl)-2-[6-[4-[4-[2-[4-[4-[(2,6-dioxo-3-piperidyl)amino]-3-fluoro-phenyl]-1-piperidyl]acetyl]piperazin-1-yl]phenyl]-4-fluoro-1-oxo-isoindolin-2-yl]-N-thiazol-2-yl-acetamide] | 50 to 150
2 | O=C1CCC(Nc2cccc(C3CCN(CC(=O)N4CCN(c5ccc(-c6cc(F)c7c(c6)C(=O)N(C(C(=O)Nc6nccs6)c6ncn8c6CCC8)C7)cc5)CC4)CC3)c2)C(=O)N1 (stereo not drawn) [Compound 16, 2-(6,7-dihydro-5H-pyrrolo[1,2-c]imidazol-1-yl)-2-(6-(4-(4-(2-(4-(3-((2,6-dioxopiperidin-3-yl)amino)phenyl)piperidin-1-yl)acetyl)piperazin-1-yl)phenyl)-4-fluoro-1-oxoisoindolin-2-yl)-N-(thiazol-2-yl)acetamide] | 50 to 150
3 | O=C1CCC(Nc2ccc(N3CCC(O)(CC(=O)N4CCN(c5ccc(-c6cc(F)c7c(c6)C(=O)N(C(C(=O)Nc6nccs6)c6ncn8c6CCC8)C7)cc5)CC4)CC3)c(C(F)(F)F)c2)C(=O)N1 (stereo not drawn) [Compound 18, 2-(6,7-dihydro-5H-pyrrolo[1,2-c]imidazol-1-yl)-2-(6-(4-(4-(2-(1-(4-((2,6-dioxopiperidin-3-yl)amino)-2-(trifluoromethyl)phenyl)-4-hydroxypiperidin-4-yl)acetyl)piperazin-1-yl)phenyl)-4-fluoro-1-oxoisoindolin-2-yl)-N-(thiazol-2-yl)acetamide] | < 50
4 | O=C1CC[C@@H](Nc2ccc(C3CCN(CC(=O)N4CCC(c5ccc(-c6cc(F)c7c(c6)C(=O)N(C(C(=O)Nc6nccs6)c6ncn8c6CCC8)C7)cc5)CC4)CC3)cc2)C(=O)N1 (stereo partly drawn) [Compound 23, 2-(6,7-dihydro-5H-pyrrolo[1,2-c]imidazol-1-yl)-2-(6-(4-(1-(2-(4-(4-(((R)-2,6-dioxopiperidin-3-yl)amino)phenyl)piperidin-1-yl)acetyl)piperidin-4-yl)phenyl)-4-fluoro-1-oxoisoindolin-2-yl)-N-(thiazol-2-yl)acetamide] | < 50
5 | O=C1CCC(Nc2ccc(C3CCN(C(=O)CN4CCC(c5ccc(-c6cc(F)c7c(c6)C(=O)N(C(C(=O)Nc6nccs6)c6ncn8c6CCC8)C7)cc5)CC4)CC3)cc2)C(=O)N1 (stereo not drawn) [Compound 26, 2-(6,7-dihydro-5H-pyrrolo[1,2-c]imidazol-1-yl)-2-[6-[4-[1-[2-[4-[4-[(2,6-dioxo-3-piperidyl)amino]phenyl]-1-piperidyl]-2-oxo-ethyl]-4-piperidyl]phenyl]-4-fluoro-1-oxo-isoindolin-2-yl]-N-thiazol-2-yl-acetamide] | < 50
6 | O=C1CCC(Nc2ccc(C3CCN(CC(=O)N4CCC(Oc5ccc(-c6cc(F)c7c(c6)C(=O)N(C(C(=O)Nc6nccs6)c6ncn8c6CCC8)C7)cc5)CC4)CC3)cc2)C(=O)N1 (stereo not drawn) [Compound 31, 2-(6,7-dihydro-5H-pyrrolo[1,2-c]imidazol-1-yl)-2-[6-[4-[[1-[2-[4-[4-[(2,6-dioxo-3-piperidyl)amino]phenyl]-1-piperidyl]acetyl]-4-piperidyl]oxy]phenyl]-4-fluoro-1-oxo-isoindolin-2-yl]-N-thiazol-2-yl-acetamide] | < 50
7 | O=C1CCC(Nc2ccc(C3CCN(CC(=O)N4CCC(Oc5ccc(-c6cc(F)c7c(c6)C(=O)N(C(C(=O)Nc6nccs6)c6ncn8c6CCC8)C7)cc5)CC4)CC3)nc2)C(=O)N1 (stereo not drawn) [Compound 36, 2-(6,7-dihydro-5H-pyrrolo[1,2-c]imidazol-1-yl)-2-(6-(4-((1-(2-(4-(5-((2,6-dioxopiperidin-3-yl)amino)pyridin-2-yl)piperidin-1-yl)acetyl)piperidin-4-yl)oxy)phenyl)-4-fluoro-1-oxoisoindolin-2-yl)-N-(thiazol-2-yl)acetamide] | < 50
8 | O=C1NC(=O)C2(Nc3ccc(C4CCN(CC(=O)N5CCC(Oc6ccc(-c7cc(F)c8c(c7)C(=O)N(C(C(=O)Nc7nccs7)c7ncn9c7CCC9)C8)cc6)CC5)CC4)cc3)CC1C2 (stereo not drawn) [Compound 38, 2-(6,7-dihydro-5H-pyrrolo[1,2-c]imidazol-1-yl)-2-(6-(4-((1-(2-(4-(4-((2,4-dioxo-3-azabicyclo[3.1.1]heptan-1-yl)amino)phenyl)piperidin-1-yl)acetyl)piperidin-4-yl)oxy)phenyl)-4-fluoro-1-oxoisoindolin-2-yl)-N-(thiazol-2-yl)acetamide] | 50 to 150
9 | O=C1CC[C@H](Nc2ccc(C3CCN(CC(=O)N4CCC(Oc5ccc(-c6cc(F)c7c(c6)C(=O)N(C(C(=O)Nc6nccs6)c6ncn8c6CCC8)C7)cc5)CC4)CC3)c(F)c2)C(=O)N1 (stereo partly drawn) [Compound 39, 2-(6,7-dihydro-5H-pyrrolo[1,2-c]imidazol-1-yl)-2-(6-(4-((1-(2-(4-(4-(((S)-2,6-dioxopiperidin-3-yl)amino)-2-fluorophenyl)piperidin-1-yl)acetyl)piperidin-4-yl)oxy)phenyl)-4-fluoro-1-oxoisoindolin-2-yl)-N-(thiazol-2-yl)acetamide] | 50 to 150
10 | O=C1CC[C@H](Nc2ccc(C3CCN(CC(=O)N4CC[C@@H](Oc5ccc(-c6cc(F)c7c(c6)C(=O)N(C(C(=O)Nc6nccs6)c6ncn8c6CCC8)C7)cc5)C4)CC3)cc2)C(=O)N1 (stereo partly drawn) [Compound 41, 2-(6,7-dihydro-5H-pyrrolo[1,2-c]imidazol-1-yl)-2-[6-[4-[(3R)-1-[2-[4-[4-[[(3S)-2,6-dioxo-3-piperidyl]amino]phenyl]-1-piperidyl]acetyl]pyrrolidin-3-yl]oxyphenyl]-4-fluoro-1-oxo-isoindolin-2-yl]-N-thiazol-2-yl-acetamide] | < 50

Same assay, conditions: Table 9B; NCI-H1975 cells, 6 hours, Total EGFR HTRF; read-out: H1975 EGFR DC50

Row | Compound | DC50 [nM]
11 | O=C1CCC(Nc2ccc(N3CCCC(O)(CC(=O)N4CC5(C4)CN(c4ccc(-c6cc(F)c7c(c6)C(=O)N(C(C(=O)Nc6nccs6)c6ncn8c6CCC8)C7)cc4)C5)CC3)c(F)c2)C(=O)N1 (single isomer, unassigned; isomer b1) [Compound 166, 2-(6,7-dihydro-5H-pyrrolo[1,2-c]imidazol-1-yl)-2-[6-[4-[2-[2-[1-[4-[[2,6-dioxo-3-piperidyl]amino]-2-fluoro-phenyl]-4-hydroxy-azepan-4-yl]acetyl]-2,6-diazaspiro[3.3]heptan-6-yl]phenyl]-4-fluoro-1-oxo-isoindolin-2-yl]-N-thiazol-2-yl-acetamide, isomer B1] | 50 to 150
12 | O=C1CCC(Nc2ccc(N3CCCC(O)(CC(=O)N4CC5(C4)CN(c4ccc(-c6cc(F)c7c(c6)C(=O)N(C(C(=O)Nc6nccs6)c6ncn8c6CCC8)C7)cc4)C5)CC3)c(F)c2)C(=O)N1 (single isomer, unassigned; isomer b2) [Compound 167, 2-(6,7-dihydro-5H-pyrrolo[1,2-c]imidazol-1-yl)-2-[6-[4-[2-[2-[1-[4-[[2,6-dioxo-3-piperidyl]amino]-2-fluoro-phenyl]-4-hydroxy-azepan-4-yl]acetyl]-2,6-diazaspiro[3.3]heptan-6-yl]phenyl]-4-fluoro-1-oxo-isoindolin-2-yl]-N-thiazol-2-yl-acetamide, isomer B2] | 50 to 150
